Measurements reported in patent US20210379078A1, “Killing Senescent Cells And Treating Senescence-Associated Conditions Using A Bcl Inhibitor And An Mcl-1 Inhibitor” (Unity Biotechnology, Inc., priority 2018, published 2021).
Blank lines part the entries; values can stand above or below the compound they belong to.

Legend:
[1] = cited from earlier work
BIM-Bcl-xL interactions = target: T1, BIM-Bcl-xL interactions (Mus musculus, UniProt Q64373); test: Target engagement co-immunoprecipitation with anti-BIM, western blot for Bcl-xL; format: cell-based
T1 construct: Lysates for co-IP experiments were prepared from: (a) lungs from mice; endogenous in cells; host or cells: mouse lung tissue (oral aspiration dosing) and mouse bronchiotracheal epithelial (MBE) cells
T1 sequence (Q64373 whole entry): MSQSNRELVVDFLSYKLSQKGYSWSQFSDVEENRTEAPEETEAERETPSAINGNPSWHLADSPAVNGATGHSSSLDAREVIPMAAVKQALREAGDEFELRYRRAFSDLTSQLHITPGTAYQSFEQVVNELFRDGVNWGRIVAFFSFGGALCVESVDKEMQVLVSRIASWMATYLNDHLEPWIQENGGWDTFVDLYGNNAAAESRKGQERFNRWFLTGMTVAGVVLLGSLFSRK
Protocol: Immunoprecipitations were performed using rabbit monoclonal anti-BIM (C34C5) antibodies (Cell Signaling Technology®) bound by Protein A-coated magnetic beads (Life Technologies®). 100 ul lysate was incubated with 10 μL of magnetic beads (pre-coated with 2 μg of antibody) for 1 hour at 4° C. in a Thermal Mixer at 1300 rpm (VWR®). After immunocapture, samples were washed three times with cold lysis buffer and eluted from the beads using non-reducing NuPAGE LDS Sample Buffer® (Life Technologies®). […]

Mcl-1 binding to BIM = test: Target engagement co-immunoprecipitation with anti-BIM, western blot for Mcl-1; format: cell-based; details: OA-dosed mouse lungs (8 hours) and MBE cells (4 hours)
Source text: A target engagement assay was developed to determine Bcl-xL and Mcl-1's respective interaction with BIM both in vivo in mice, or cells in culture, in order to predict senolysis. The respective binding pockets of Bcl-xL and Mcl-1 proteins under normal conditions sequestrate pro-apoptotic proteins, such as BIM. Co-immunoprecipitation (co-IP) was employed to study protein-protein interactions in order to determine if candidate senolytics can effectively displace Bcl-xL or Mcl-1 from BIM protein.
Lysates for co-IP experiments were prepared from: (a) lungs from mice that had been dosed for 8 hours by oral aspiration (OA) with either a candidate senolytic Bcl (Compound 1) or Mcl-1 inhibitor (S-63845), or a control vehicle treatment; or (b) mouse bronchiotrachael epithelial (MBE) cells, dosed for 4 hours with the same Bcl or Mcl-1 inhibitor, using a non-denaturing lysis buffer: PBS pH 7.4, 2% CHAPS, supplemented with a protease inhibitor cocktail (Roche®)). For every 0.25 gram of tissue 1 mL of lysis buffer was added to the sample, and next tissue was homogenized using a Precellys 24 (Bertin Technologies®; 3 cycles of 20 s and 20 s pause). Homogenates were cleared by centrifugation at 13000 g at 4° C. for 10 min, and the supernatant lysate was transferred to new tubes, aliquoted, flash-frozen using liquid nitrogen, and stored at −80° C. […]

Compound: CN(C)CC[C@H](CSc1ccccc1)Nc1ccc(S(=O)(=O)NC(=O)c2ccc(N3CCN(Cc4ccccc4-c4ccc(Cl)cc4)CC3)cc2)cc1[N+](=O)[O-] [ABT-737]
- dose-limiting toxicity in human patients [1]: dose-limiting thrombocytopenia

- BIM-Bcl-xL interactions (co-IP) (BIM-Bcl-xL interactions; OA-dosed mouse lungs (8 hours) and MBE cells (4 hours)): blocked
Compound: Cc1c(C(=O)O)c(-c2cccc(N3CCN(c4ccc(NS(=O)(=O)c5ccc(N[C@H](CCN6CCC(OP(=O)(O)O)CC6)CSc6ccccc6)c(S(=O)(=O)C(F)(F)F)c5)cc4)CC3)c2)c(-c2ccc(Cl)cc2)n1C(C)C [Compound 1]
- Mcl-1 binding to BIM (co-IP) (Mcl-1 binding to BIM): compensatory Mcl-1 binding to BIM was observed

Compound: Cc1c(-c2c(-c3ccc(F)o3)sc3ncnc(O[C@H](Cc4ccccc4OCc4ccnn4CC(F)(F)F)C(=O)O)c23)ccc(OCCN2CCN(C)CC2)c1Cl [Compound S-63845]
- Bcl-xL binding to BIM when Mcl-1 is inhibited (co-IP) (BIM-Bcl-xL interactions; S-63845 at 1 uM and 10 uM): Bcl-xL appeared to compensate for BIM binding
